Measured values reported in patent US20190209506A1, “METHODS OF REDUCING OR PREVENTING OXIDATION OF LDL OR LIPID MEMBRANES IN A SUBJECT IN NEED THEREOF” (Amarin Pharmaceuticals Ireland Limited, priority 2018, published 2019).

Test system: human sdLDL
Experiment: Copper-induced sdLDL oxidation with fatty acids, TBARS/MDA (Example 14)
Type: biochemical
Details: 1.0 μM; for effect on lipoprotein oxidation compared to vehicle: 40 minutes
Protocol: Venous blood was collected from healthy volunteers into vacutainer tubes. Plasma was separated by centrifugation at 3000 g for 25 min at 4° C. and adjusted to a density of 1.020 g/mL with KBr. sdLDL was isolated from the plasma of healthy volunteers by iodixanol density gradient ultracentrifugation and adjusted to a final apolipoprotein concentration of 2 mg/mL. An aliquot of sdLDL (50 μL) was incubated with either 10 μL vehicle (ethanol) or 10 μL FA (EPA, ETE, AA, EA, DHA, DPA, ALA, LA or SA) treatment stock solution (100 μM) for 30 min at 37° C. Oxidation was initiated with addition of initiator CuSO4 (10.0 μM). At certain time points (0, 40, 60, and 120 minutes), […] were removed from each subfraction and combined with 1.0 mL thiobarbituric acid (0.5%), 10 μL trichloroacetic acid (10%), 10 μL butylated hydroxytoluene (BHT; 35 mM in ethanol), and 10 μL ethylenediaminetetraacetic acid (EDTA; 5 mM). Sample aliquots were incubated at 100° C. for 30 min and then assayed for the formation of thiobarbituric acid reactive substances (TBARS), which have a molar absorptivity (ε) value of 1.56×105 M^−1 cm^−1 at 532 nm and are largely derived from the reaction of thiobarbituric acid with MDA, a reactive aldehyde produced by sdLDL oxidation. Sample TBARS concentrations were determined spectrophotometrically by measuring sample absorbances against a standard curve derived from the hydrolysis of 1,1,3,3-tetramethoxypropane.

Row | SMILES | effect on lipoprotein oxidation compared to vehicle | MDA Equivalents (Mean ± SD) (time point 0 min) | MDA Equivalents (Mean ± SD) (time point 40 min) | MDA Equivalents (Mean ± SD) (time point 60 min) | MDA Equivalents (Mean ± SD) (time point 120 min)
1 | CCCCC/C=C\C/C=C\CCCCCCCC(=O)O [LA, linoleic acid] | did not completely lipoprotein oxidation | 0.57 ± 0.12 µM | 10.74 ± 0.27 µM | 11.89 ± 0.30 µM | 12.55 ± 0.78 µM
2 | CCCCCCCCCCCCCCCCCCCC(=O)O [EA, eicosanoic acid] | did not completely inhibit oxidation compared to vehicle | 1.06 ± 0.09 µM | 11.27 ± 0.28 µM | 11.65 ± 0.65 µM | 13.22 ± 0.68 µM
3 | CCCCCCCC/C=C\CCCCCCCC(=O)O [OA, oleic acid] | did not completely lipoprotein oxidation | 0.78 ± 0.13 µM | 10.98 ± 0.36 µM | 12.00 ± 0.19 µM | 12.57 ± 0.38 µM
4 | CCCCCCCCCCCCCCCCCC(=O)O [SA, stearic acid] | did not completely inhibit oxidation compared to vehicle | 0.78 ± 0.01 µM | 10.60 ± 0.21 µM | 12.07 ± 0.23 µM | 12.33 ± 0.10 µM
